Laboratory results reported in patent US9695155B2, “Herbicidal substituted pyrimidinyloxy benzene compounds” (E. I. DU PONT DE NEMOURS AND COMPANY, priority 2013, dated 2017).

Assays:
barnyardgrass [1] = assay: Test A preemergence; type: in vivo, Echinochloa crus-galli; settings: for Barnyardgrass plant response rating (0 to 100 scale, 0 is no effect, 100 is complete control): 125 g ai/ha; for Barnyardgrass plant response rating: 500 g ai/ha, 0 to 100 scale where 0 is no effect and 100 is complete control
Summary of the method: (§1)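 Greenhouse pot test, loam/sand soil. Formulation: non-phytotoxic solvent mix plus surfactant. Pre: directed spray onto soil after sowing. Post: plants at 1–2 leaf, 2–10 cm. Rated visually vs untreated controls at ~10 d, 0 (no effect) to 100 (complete control).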

large (Lg) crabgrass [2] = assay: Test A preemergence; type: in vivo, Digitaria sanguinalis; settings: for Crabgrass, Large plant response rating (0 to 100 scale): 125 g ai/ha; for Crabgrass, Large plant response rating: 500 g ai/ha, 0 to 100 scale where 0 is no effect and 100 is complete control
Summary of the method: as §1

giant foxtail [3] = assay: Test A preemergence; type: in vivo, Setaria faberii; settings: for Foxtail, Giant plant response rating (0 to 100 scale): 125 g ai/ha; for Foxtail, Giant plant response rating: 500 g ai/ha, 0 to 100 scale where 0 is no effect and 100 is complete control
Summary of the method: as §1

morningglory [4] = assay: Test A preemergence; type: in vivo, Ipomoea spp.; settings: for Morningglory plant response rating (0 to 100 scale): 125 g ai/ha; for Morningglory plant response rating: 500 g ai/ha, 0 to 100 scale where 0 is no effect and 100 is complete control
Summary of the method: as §1

pigweed [5] = assay: Test A preemergence; type: in vivo, Amaranthus retroflexus; settings: for Pigweed plant response rating (0 to 100 scale): 125 g ai/ha; for Pigweed plant response rating: 500 g ai/ha, 0 to 100 scale where 0 is no effect and 100 is complete control
Summary of the method: as §1

velvetleaf [6] = assay: Test A preemergence; type: in vivo, Abutilon theophrasti; settings: for Velvetleaf plant response rating (0 to 100 scale): 125 g ai/ha; for Velvetleaf plant response rating: 500 g ai/ha, 0 to 100 scale where 0 is no effect and 100 is complete control
Summary of the method: as §1

wheat [7] = assay: Test A preemergence; type: in vivo, Triticum aestivum; settings: for Wheat plant response rating (0 to 100 scale): 125 g ai/ha; for Wheat plant response rating: 500 g ai/ha, 0 to 100 scale where 0 is no effect and 100 is complete control
Summary of the method: as §1

corn [8] = assay: Test A preemergence; type: in vivo, Zea mays; settings: for Corn plant response rating (0 to 100 scale): 125 g ai/ha; for Corn plant response rating: 500 g ai/ha, 0 to 100 scale where 0 is no effect and 100 is complete control
Summary of the method: as §1

barnyardgrass [9] = assay: Test A postemergence; type: in vivo, Echinochloa crus-galli; settings: 0 to 100 scale where 0 is no effect and 100 is complete control; for Barnyardgrass plant response rating: 125 g ai/ha; for Plant response rating, Barnyardgrass: 500 g ai/ha
Summary of the method: as §1

large (Lg) crabgrass [10] = assay: Test A postemergence; type: in vivo, Digitaria sanguinalis; settings: 0 to 100 scale where 0 is no effect and 100 is complete control; for Crabgrass, Large plant response rating: 125 g ai/ha; for Plant response rating, Crabgrass, Large: 500 g ai/ha
Summary of the method: as §1

giant foxtail [11] = assay: Test A postemergence; type: in vivo, Setaria faberii; settings: 0 to 100 scale where 0 is no effect and 100 is complete control; for Foxtail, Giant plant response rating: 125 g ai/ha; for Plant response rating, Foxtail, Giant: 500 g ai/ha
Summary of the method: as §1

morningglory [12] = assay: Test A postemergence; type: in vivo, Ipomoea spp.; settings: 0 to 100 scale where 0 is no effect and 100 is complete control; for Morningglory plant response rating: 125 g ai/ha; for Plant response rating, Morningglory: 500 g ai/ha
Summary of the method: as §1

pigweed [13] = assay: Test A postemergence; type: in vivo, Amaranthus retroflexus; settings: 0 to 100 scale where 0 is no effect and 100 is complete control; for Pigweed plant response rating: 125 g ai/ha; for Plant response rating, Pigweed: 500 g ai/ha
Summary of the method: as §1

velvetleaf [14] = assay: Test A postemergence; type: in vivo, Abutilon theophrasti; settings: 0 to 100 scale where 0 is no effect and 100 is complete control; for Velvetleaf plant response rating: 125 g ai/ha; for Plant response rating, Velvetleaf: 500 g ai/ha
Summary of the method: as §1

wheat [15] = assay: Test A postemergence; type: in vivo, Triticum aestivum; settings: 0 to 100 scale where 0 is no effect and 100 is complete control; for Wheat plant response rating: 125 g ai/ha; for Plant response rating, Wheat: 500 g ai/ha
Summary of the method: as §1

corn [16] = assay: Test A postemergence; type: in vivo, Zea mays; settings: 0 to 100 scale where 0 is no effect and 100 is complete control; for Corn plant response rating: 125 g ai/ha; for Plant response rating, Corn: 500 g ai/ha
Summary of the method: as §1

rice = assay: Test B flooded paddy test; type: in vivo, Oryza sativa; settings: Flood, 250 g ai/ha; 0 to 100 scale where 0 is no effect and 100 is complete control
Summary of the method: (§2)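 Seedlings are raised to two leaves, flooded to a depth of 3 cm and dosed by adding the compound to the floodwater. Water level is kept constant, and plants are scored visually versus controls 13–15 days later (0 = no effect, 100 = complete control).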

sedge, umbrella = assay: Test B flooded paddy test; type: in vivo, Cyperus difformis; settings: Flood, 250 g ai/ha; 0 to 100 scale where 0 is no effect and 100 is complete control
Summary of the method: as §2

Heteranthera limosa = assay: Test B flooded paddy test; type: in vivo; settings: Flood, 250 g ai/ha; 0 to 100 scale where 0 is no effect and 100 is complete control
Summary of the method: as §2

barnyardgrass [17] = assay: Test B flooded paddy test; type: in vivo, Echinochloa crus-galli; settings: Flood, 250 g ai/ha; 0 to 100 scale where 0 is no effect and 100 is complete control
Summary of the method: as §2

| SMILES | Barnyardgrass plant response rating (0 to 100 scale, 0 is no effect, 100 is complete control) (barnyardgrass [1]) | Barnyardgrass plant response rating (barnyardgrass [1]) | Crabgrass, Large plant response rating (0 to 100 scale) (large (Lg) crabgrass [2]) | Crabgrass, Large plant response rating (large (Lg) crabgrass [2]) | Foxtail, Giant plant response rating (0 to 100 scale) (giant foxtail [3]) | Foxtail, Giant plant response rating (giant foxtail [3]) | Morningglory plant response rating (0 to 100 scale) (morningglory [4]) | Morningglory plant response rating (morningglory [4]) | Pigweed plant response rating (0 to 100 scale) (pigweed [5]) | Pigweed plant response rating (pigweed [5]) | Velvetleaf plant response rating (0 to 100 scale) (velvetleaf [6]) | Velvetleaf plant response rating (velvetleaf [6]) | Wheat plant response rating (0 to 100 scale) (wheat [7]) | Wheat plant response rating (wheat [7]) | Corn plant response rating (0 to 100 scale) (corn [8]) | Corn plant response rating (corn [8]) | Barnyardgrass plant response rating (barnyardgrass [9]) | Plant response rating, Barnyardgrass (barnyardgrass [9]) | Crabgrass, Large plant response rating (large (Lg) crabgrass [10]) | Plant response rating, Crabgrass, Large (large (Lg) crabgrass [10]) | also measured |
| --- | --- | --- | --- | --- | --- | --- | --- | --- | --- | --- | --- | --- | --- | --- | --- | --- | --- | --- | --- | --- | --- |
| O=Cc1cccc(Oc2ncc(Br)cn2)c1-n1cc(Cl)cn1 [Compound 206] | 0 | 0 | 0 | 0 | 0 | 0 | 0 | 0 | 0 | 50 | 0 | 0 | 0 | 0 | 0 | 0 | 0 | 0 | 0 | 0 | Foxtail, Giant plant response rating (giant foxtail [11]): 0; Plant response rating, Foxtail, Giant (giant foxtail [11]): 0; Morningglory plant response rating (morningglory [12]): 0; Plant response rating, Morningglory (morningglory [12]): 0; Pigweed plant response rating (pigweed [13]): 0; Plant response rating, Pigweed (pigweed [13]): 0; Velvetleaf plant response rating (velvetleaf [14]): 10; Plant response rating, Velvetleaf (velvetleaf [14]): 20; Wheat plant response rating (wheat [15]): 0; Plant response rating, Wheat (wheat [15]): 0; Corn plant response rating (corn [16]): 0; Plant response rating, Corn (corn [16]): 0; Plant response rating, Rice (rice): 0; Plant response rating, Sedge, Umbrella (sedge, umbrella): 0; Plant response rating, Ducksalad (Heteranthera limosa): 0; Plant response rating, Barnyardgrass (barnyardgrass [17]): 0 |
| N#Cc1cccc(Oc2ncc(Cl)cn2)c1-n1cccn1 [Compound 208] | 0 | 70 | 20 | 100 | 20 | 90 | 0 | 30 | 30 | 100 | 0 | 50 | 0 | 20 | 0 | 0 | 0 | 0 | 0 | 20 | Foxtail, Giant plant response rating (giant foxtail [11]): 0; Plant response rating, Foxtail, Giant (giant foxtail [11]): 20; Morningglory plant response rating (morningglory [12]): 20; Plant response rating, Morningglory (morningglory [12]): 80; Pigweed plant response rating (pigweed [13]): 30; Plant response rating, Pigweed (pigweed [13]): 100; Velvetleaf plant response rating (velvetleaf [14]): 40; Plant response rating, Velvetleaf (velvetleaf [14]): 60; Wheat plant response rating (wheat [15]): 0; Plant response rating, Wheat (wheat [15]): 0; Corn plant response rating (corn [16]): 0; Plant response rating, Corn (corn [16]): 20; Plant response rating, Rice (rice): 0; Plant response rating, Sedge, Umbrella (sedge, umbrella): 0; Plant response rating, Ducksalad (Heteranthera limosa): 0; Plant response rating, Barnyardgrass (barnyardgrass [17]): 0 |
